Assay results taken from PubChem BioAssay AID1259407 (Chemical Carcinogenesis Research Information System (CCRIS), 2018).
Active and inactive are the calls of the source. No rule for the calls is given here.

Tested on: CCRIS mutagenicity, Ames/micronucleus/aberration tests
Assay: CCRIS mutagenicity studies
[1] = Test System: AMES SALMONELLA TYPHIMURIUM, Strain/Indicator: TA98, Metabolic Activation: NONE, Method: PREINCUBATION
[2] = Test System: AMES SALMONELLA TYPHIMURIUM, Strain/Indicator: TA100, Metabolic Activation: NONE, Method: PREINCUBATION
[3] = Test System: AMES SALMONELLA TYPHIMURIUM, Strain/Indicator: TA1535, Metabolic Activation: NONE, Method: PREINCUBATION
[4] = Test System: AMES SALMONELLA TYPHIMURIUM, Strain/Indicator: TA1537, Metabolic Activation: NONE, Method: PREINCUBATION
[5] = Test System: AMES SALMONELLA TYPHIMURIUM, Strain/Indicator: TA100, Metabolic Activation: NONE, Method: STANDARD PLATE
[6] = Test System: AMES SALMONELLA TYPHIMURIUM, Strain/Indicator: TA98, Metabolic Activation: RAT, LIVER, S-9, AROCLOR 1254, Method: PREINCUBATION
[7] = Test System: AMES SALMONELLA TYPHIMURIUM, Strain/Indicator: TA100, Metabolic Activation: RAT, LIVER, S-9, AROCLOR 1254, Method: PREINCUBATION

Q: `CC(=O)C(N=Nc1ccc(-c2ccc(N=NC(C(C)=O)C(=O)Nc3ccccc3)c(Cl)c2)cc1Cl)C(=O)Nc1ccccc1` (configuration not stated) was tested. Which mutagenic call (Test System: AMES SALMONELLA TYPHIMURIUM, Strain/Indicator: TA98, Metabolic Activation: HAMSTER, LIVER, S-9, AROCLOR 1254 (10%), Method: PREINCUBATION) did it give?
A: The mutagenic call was “inactive; negative”.

Q: What about the mutagenic call [1] of the same compound?
A: Its mutagenic call is “inactive; negative”.

Q: And the mutagenic call (Test System: AMES SALMONELLA TYPHIMURIUM, Strain/Indicator: TA98, Metabolic Activation: RAT, LIVER, S-9, AROCLOR 1254 (10%), Method: PREINCUBATION)?
A: The mutagenic call was “inactive; negative”.

Q: What about the mutagenic call (Test System: AMES SALMONELLA TYPHIMURIUM, Strain/Indicator: TA100, Metabolic Activation: HAMSTER, LIVER, S-9, AROCLOR 1254 (10%), Method: PREINCUBATION) of the same compound?
A: The mutagenic call was “inactive; negative”.

Q: What about the mutagenic call [2] of the same compound?
A: Its mutagenic call is “inactive; negative”.

Q: And the mutagenic call (Test System: AMES SALMONELLA TYPHIMURIUM, Strain/Indicator: TA100, Metabolic Activation: RAT, LIVER, S-9, AROCLOR 1254 (10%), Method: PREINCUBATION)?
A: The mutagenic call was “inactive; negative”.

Q: And the mutagenic call (Test System: AMES SALMONELLA TYPHIMURIUM, Strain/Indicator: TA1535, Metabolic Activation: HAMSTER, LIVER, S-9, AROCLOR 1254 (10%), Method: PREINCUBATION)?
A: The mutagenic call was “inactive; negative”.

Q: And the mutagenic call [3]?
A: Its mutagenic call is “inactive; negative”.

Q: What about the mutagenic call (Test System: AMES SALMONELLA TYPHIMURIUM, Strain/Indicator: TA1535, Metabolic Activation: RAT, LIVER, S-9, AROCLOR 1254 (10%), Method: PREINCUBATION) of the same compound?
A: The mutagenic call was “inactive; negative”.

Q: What about the mutagenic call (Test System: AMES SALMONELLA TYPHIMURIUM, Strain/Indicator: TA1537, Metabolic Activation: HAMSTER, LIVER, S-9, AROCLOR 1254 (10%), Method: PREINCUBATION) of the same compound?
A: Its mutagenic call is “inactive; negative”.

Q: And the mutagenic call [4]?
A: Its mutagenic call is “inactive; negative”.

Q: And the mutagenic call (Test System: AMES SALMONELLA TYPHIMURIUM, Strain/Indicator: TA1537, Metabolic Activation: RAT, LIVER, S-9, AROCLOR 1254 (10%), Method: PREINCUBATION)?
A: The mutagenic call was “inactive; negative”.

Q: What about the mutagenic call (Test System: AMES SALMONELLA TYPHIMURIUM, Strain/Indicator: TA1538, Metabolic Activation: RAT, LIVER, S-9, AROCLOR 1254, Method: STANDARD PLATE) of the same compound?
A: The mutagenic call was “inactive; negative”.

Q: What does the source list for `Cc1ccc(NN=NCc2ccccc2)cc1`?
A: mutagenic call [1]: active; positive; mutagenic call (Test System: AMES SALMONELLA TYPHIMURIUM, Strain/Indicator: TA98, Metabolic Activation: RAT, LIVER, S-9, PCB, Method: PREINCUBATION): active; positive; mutagenic call [2]: active; positive; mutagenic call (Test System: AMES SALMONELLA TYPHIMURIUM, Strain/Indicator: TA100, Metabolic Activation: RAT, LIVER, S-9, PCB, Method: PREINCUBATION): active; positive

Q: Which mutagenic call [5] does the source give for `COc1cc2c(c3oc(=O)c4c(c13)CC[C@H]4O)[C@@H]1C=CO[C@@H]1O2` here?
A: The mutagenic call was “inactive; negative”.

Q: And the mutagenic call (Test System: AMES SALMONELLA TYPHIMURIUM, Strain/Indicator: TA100, Metabolic Activation: RAT, LIVER, S-9, AROCLOR 1254, Method: STANDARD PLATE)?
A: Its mutagenic call is “active; positive”.

Q: `CN1CC[C@@]2(C)c3cc(O)ccc3N(C)[C@@H]12` was tested. Which mutagenic call (Test System: AMES SALMONELLA TYPHIMURIUM, Strain/Indicator: TA97, Metabolic Activation: NONE, Method: STANDARD PLATE) did it give?
A: Its mutagenic call is “inactive; negative”.

Q: And the mutagenic call (Test System: AMES SALMONELLA TYPHIMURIUM, Strain/Indicator: TA97, Metabolic Activation: S-9, Method: STANDARD PLATE)?
A: Its mutagenic call is “inactive; negative”.

Q: What about the mutagenic call (Test System: AMES SALMONELLA TYPHIMURIUM, Strain/Indicator: TA98, Metabolic Activation: NONE, Method: STANDARD PLATE) of the same compound?
A: The mutagenic call was “inactive; negative”.

Q: And the mutagenic call (Test System: AMES SALMONELLA TYPHIMURIUM, Strain/Indicator: TA98, Metabolic Activation: S-9, Method: STANDARD PLATE)?
A: Its mutagenic call is “inactive; negative”.

Q: What about the mutagenic call [5] of the same compound?
A: Its mutagenic call is “inactive; negative”.

Q: And the mutagenic call (Test System: AMES SALMONELLA TYPHIMURIUM, Strain/Indicator: TA100, Metabolic Activation: S-9, Method: STANDARD PLATE)?
A: Its mutagenic call is “inactive; negative”.

Q: What about the mutagenic call (Test System: AMES SALMONELLA TYPHIMURIUM, Strain/Indicator: TA104, Metabolic Activation: NONE, Method: STANDARD PLATE) of the same compound?
A: Its mutagenic call is “inactive; negative”.

Q: What about the mutagenic call (Test System: AMES SALMONELLA TYPHIMURIUM, Strain/Indicator: TA104, Metabolic Activation: S-9, Method: STANDARD PLATE) of the same compound?
A: Its mutagenic call is “inactive; negative”.

Q: What about the mutagenic call (Test System: AMES SALMONELLA TYPHIMURIUM, Strain/Indicator: TA1535, Metabolic Activation: NONE, Method: STANDARD PLATE) of the same compound?
A: Its mutagenic call is “inactive; negative”.

Q: What about the mutagenic call (Test System: AMES SALMONELLA TYPHIMURIUM, Strain/Indicator: TA1535, Metabolic Activation: S-9, Method: STANDARD PLATE) of the same compound?
A: The mutagenic call was “inactive; negative”.

Q: What about the mutagenic call (Test System: AMES SALMONELLA TYPHIMURIUM, Strain/Indicator: TA1537, Metabolic Activation: NONE, Method: STANDARD PLATE) of the same compound?
A: Its mutagenic call is “inactive; negative”.

Q: What about the mutagenic call (Test System: AMES SALMONELLA TYPHIMURIUM, Strain/Indicator: TA1537, Metabolic Activation: S-9, Method: STANDARD PLATE) of the same compound?
A: Its mutagenic call is “inactive; negative”.

Q: What about the mutagenic call (Test System: AMES SALMONELLA TYPHIMURIUM, Strain/Indicator: TA1538, Metabolic Activation: S-9, Method: STANDARD PLATE) of the same compound?
A: The mutagenic call was “inactive; negative”.

Q: Which mutagenic call (Test System: AMES SALMONELLA TYPHIMURIUM, Strain/Indicator: TA100, Metabolic Activation: POOLED HUMAN LIVER MICROSOMES, Method: PREINCUBATION) does the source give for `c1cnc2c(c1)ccc1c3cccnc3ccc12` here?
A: Its mutagenic call is “active; positive”.

Q: What about the mutagenic call (Test System: AMES SALMONELLA TYPHIMURIUM, Strain/Indicator: TA100, Metabolic Activation: RAT, LIVER, S-9, PHENOBARBITAL AND 5,6-BENZOFLAVONE, Method: PREINCUBATION) of the same compound?
A: Its mutagenic call is “active; positive”.

Q: What about the mutagenic call (Test System: LACZ TRANSGENIC MOUSE (MUTATM MOUSE), Strain/Indicator: LACZ MUTANT FREQUENCY, Method: LIVER, SPLEEN, LUNG, KIDNEY, BONE MARROW, COLON HARVESTED 7 D AFTER LAST DOSE, DNA ISOLATED) of the same compound?
A: The mutagenic call was “active; positive; g:c to t:a transversions in all organs”.

Q: Which results are given for `Clc1ccc(Cl)c(Cl)c1`?
A: mutagenic call (Test System: AMES SALMONELLA TYPHIMURIUM, Strain/Indicator: TA98, Metabolic Activation: HAMSTER, LIVER, S-9, AROCLOR 1254, Method: PREINCUBATION): inactive; negative; mutagenic call [1]: inactive; negative; mutagenic call [6]: inactive; negative; mutagenic call (Test System: AMES SALMONELLA TYPHIMURIUM, Strain/Indicator: TA100, Metabolic Activation: HAMSTER, LIVER, S-9, AROCLOR 1254, Method: PREINCUBATION): inactive; negative; mutagenic call [2]: inactive; negative; mutagenic call [7]: inactive; negative; mutagenic call (Test System: AMES SALMONELLA TYPHIMURIUM, Strain/Indicator: TA1535, Metabolic Activation: HAMSTER, LIVER, S-9, AROCLOR 1254, Method: PREINCUBATION): inactive; negative; mutagenic call [3]: inactive; negative; mutagenic call (Test System: AMES SALMONELLA TYPHIMURIUM, Strain/Indicator: TA1535, Metabolic Activation: RAT, LIVER, S-9, AROCLOR 1254, Method: PREINCUBATION): inactive; negative; mutagenic call (Test System: AMES SALMONELLA TYPHIMURIUM, Strain/Indicator: TA1537, Metabolic Activation: HAMSTER, LIVER, S-9, AROCLOR 1254, Method: PREINCUBATION): inactive; negative; mutagenic call [4]: inactive; negative; mutagenic call (Test System: AMES SALMONELLA TYPHIMURIUM, Strain/Indicator: TA1537, Metabolic Activation: RAT, LIVER, S-9, AROCLOR 1254, Method: PREINCUBATION): inactive; negative

Q: For `CC(=O)C(C)O` (configuration not stated), which mutagenic call [1] is on record?
A: The mutagenic call was “inactive; negative”.

Q: And the mutagenic call [6]?
A: The mutagenic call was “inactive; negative”.

Q: What about the mutagenic call [2] of the same compound?
A: The mutagenic call was “inactive; negative”.

Q: And the mutagenic call [7]?
A: Its mutagenic call is “inactive; negative”.

Q: And the mutagenic call (Test System: AMES SALMONELLA TYPHIMURIUM, Strain/Indicator: TA102, Metabolic Activation: NONE, Method: PREINCUBATION)?
A: The mutagenic call was “inactive; negative”.

Q: What about the mutagenic call (Test System: AMES SALMONELLA TYPHIMURIUM, Strain/Indicator: TA102, Metabolic Activation: RAT, LIVER, S-9, AROCLOR 1254, Method: PREINCUBATION) of the same compound?
A: The mutagenic call was “inactive; negative”.

Q: What about the mutagenic call [3] of the same compound?
A: Its mutagenic call is “inactive; negative”.

Q: What about the mutagenic call [4] of the same compound?
A: Its mutagenic call is “inactive; negative”.

Q: What about the mutagenic call (Test System: AMES SALMONELLA TYPHIMURIUM, Strain/Indicator: TA1538, Metabolic Activation: NONE, Method: PREINCUBATION) of the same compound?
A: The mutagenic call was “inactive; negative”.

Q: And the mutagenic call (Test System: E. COLI, Strain/Indicator: WP2 UVRA, Metabolic Activation: NONE, Method: PREINCUBATION)?
A: Its mutagenic call is “inactive; negative”.
